# According to publication PMC8151276, “An Integrated Approach toward NanoBRET Tracers for Analysis of GPCR Ligand Engagement” (Molecules, 2021):
# Molecular target: T1, MCHR2 (Homo sapiens, UniProt Q969V1)
# T1 construct: purchased Promega (in-house HiBiT-GPCR construct library, NanoBRET)
# Experiment: NanoBRET screen HiBiT-MCHR2 in HEK293
# Assay type: binding
# Procedure: Each tracer candidate was screened across the entire library of HiBiT-GPCR constructs using NanoBRET as the detection modality. As depicted in Figure 4A, the specificity of interactions was evaluated through decrease in BRET due to competitive displacement of a bound tracer by excess parental compound. Each tracer was analyzed for binding to each HiBiT-GPCR fusion in the absence and in the presence of competing parental compound. Briefly, HEK293 cells were transfected with HiBiT-GPCR constructs diluted into promoterless DNA to reduce expression and maximize translocation to the cell surface. Each tracer candidate was then screened at concentrations of 1 μM and 0.1 μM across cells expressing these fusions. Cells were treated for 1.5 h with tracer either alone or in the presence of 20 μM competing parental compound (i.e., control). BRET was measured upon addition of purified LgBiT and subsequent complementation with HiBiT genetically fused to a GPCR. The specificity of interactions was assessed through a decrease in BRET signal due to competitive displacement of the bound tracer. To further gauge the robustness of these interactions, the fold response over the control (i.e., BRETtracer/BRETcontrol) was calculated. We chose a 1.5-fold response, which translates to ≥7-fold signal over noise as the minimal threshold required to score an interaction as positive.
# HiBiT-GPCR DNA constructs were diluted in 10 mM Tris pH 8 to a final concentration of 0.01 μg/μL, arrayed in 96-well plates and stored at −20 °C. For transfection, HEK293 cells were suspended in Opti-MEM (without phenol red) supplemented with 2% fetal bovine serum (Seradigm) and 100 units/mL penicillin–streptomycin (Gibco) at a final concentration of 220,000 cells/mL and dispensed into white 96-well plates at 90 μL/well. Subsequent transfections and screens were carried using an Agilent Bravo Automated Liquid Handling Platform. First, the 96-well HiBiT DNA arrays were diluted 25-fold in Opti-MEM (without serum or phenol red) to a final concentration of 0.0004 μg/μL and 20 μL of the diluted DNAs were transferred into new 96-well plates. Next, promoterless carrier DNA (1 μg/μL) was diluted 25-fold (0.04 μg/μL) and then dispensed into the diluted arrays at 20 μL/well. Following brief mixing, Viafect transfection reagent (Promega) diluted 16-fold into Opti-MEM was dispensed into the plates at 40 μL/well. After mixing by pipetting, plates were incubated for 10 min on the pipetting station deck. The DNA-transfection reagent complexes were then added to plates containing cells. To facilitate the screen, 10 μL of DNA-transfection reagent complexes were added in duplicates to the top 4 and bottom 4 rows, resulting in two identical 48-well arrays per plate. Plates with transfected cells were incubated for 18–20 h at 37 °C/5% CO2. A screen of each tracer across the entire library using two different concentrations requires duplicate plates of transfected cells. Depending on the number of tracers being screened, transfections can be scaled up using the same ratios. The next day, for each tracer, four 20× screening solutions in tracer dilution buffer (Promega) were prepared: two duplicates at final concentration of 20 μM and two duplicates at a final concentration of 2 μM. […] The four resulting solutions were diluted 4-fold in Opti-MEM without serum or phenol red to generate 5× solutions (5 µM and 0.5 µM tracer +/− 100 μM competing compound). To screen the library, a BioTek MultiFlo FX liquid dispenser was used to dispense 22.5 µL of tracer solution to the top 4 rows and 22.5 µL tracer + competing compound solution to the 4 bottom rows. Plates were briefly mixed on an orbital shaker and incubated for 1.5 h at room temperature. […] Plates were briefly mixed on an orbital shaker and incubated for 15 min to allow complementation.
# T1 sequence (Q969V1 whole entry): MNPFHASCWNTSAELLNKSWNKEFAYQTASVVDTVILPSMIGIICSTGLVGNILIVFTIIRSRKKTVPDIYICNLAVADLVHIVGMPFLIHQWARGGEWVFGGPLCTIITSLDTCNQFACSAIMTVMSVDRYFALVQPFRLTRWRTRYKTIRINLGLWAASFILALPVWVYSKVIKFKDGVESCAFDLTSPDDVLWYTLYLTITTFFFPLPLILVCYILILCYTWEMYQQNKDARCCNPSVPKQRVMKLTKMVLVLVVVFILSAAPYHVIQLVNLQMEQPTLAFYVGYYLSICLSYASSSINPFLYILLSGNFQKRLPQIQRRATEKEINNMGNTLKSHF
structure (smiles),measurement,setting,value
CCOC(=O)c1cc(C#N)c(N2CCC(C(=O)NS(=O)(=O)Cc3ccccc3/C=C/C(=O)NCCNC(=O)CCc3ccc4n3[B-](F)(F)[N+]3=C(c5ccc[nH]5)C=CC3=C4)CC2)nc1C [AZD1283-1-NB590],NanoBRET Fold Response,"MCHR2, 0.1μM",1.04
same,NanoBRET Fold Response,"MCHR2, 1μM",1.06
N#CN=C(NCCCOc1cccc(CN2CCCCC2)c1)NCCNC(=O)CCOCCOCCOCCOCCNC(=O)CCc1ccc2n1[B-](F)(F)[N+]1=C(c3ccc[nH]3)C=CC1=C2 [Aminopotentidine-2-NB590],NanoBRET Fold Response,"MCHR2, tracer 0.1μM",0.97
same,NanoBRET Fold Response,"MCHR2, tracer 1μM",1.03
CN(C)CCC=C1c2ccccc2CCc2ccc(C(=O)NCCNC(=O)CCOCCOCCOCCOCCNC(=O)CCc3ccc4n3[B-](F)(F)[N+]3=C(c5ccc[nH]5)C=CC3=C4)cc21 [Amitriptyline-a-2-NB590],NanoBRET Fold Response,tracer at 0.1μM,0.97
same,NanoBRET Fold Response,tracer at 1μM,1.01
CN(C)CCC=C1c2ccccc2CCc2ccc(C(=O)NCCNC(=O)CCOCCOCCOCCOCCNC(=O)CCc3ccc4n3[B-](F)(F)[N+]3=C(c5ccc[nH]5)C=CC3=C4)cc21 [Amitriptyline-b-2-NB590],NanoBRET Fold Response,"tracer at 0.1μM, listed as amitriptyline-b-2-NB590",0.85
same,NanoBRET Fold Response,"tracer at 1μM, listed as amitriptyline-b-2-NB590",0.90
COc1ccc2c(n1)c(CCNC(C)=O)cn2CCNC(=O)CCc1ccc2n1[B-](F)(F)[N+]1=C(c3ccc[nH]3)C=CC1=C2 [Azamelatonin-1-NB590],NanoBRET Fold Response,0.1μM tracer,1.45
same,NanoBRET Fold Response,1μM tracer,0.86
COc1ccc2[nH]c(-c3ccc(CNC(=O)CCOCCOCCOCCOCCNC(=O)CCc4ccc5n4[B-](F)(F)[N+]4=C(c6ccc[nH]6)C=CC4=C5)cc3)c(CCNC(C)=O)c2n1 [AzomelatoninICO9-2-NB590],NanoBRET Fold Response,0.1μM tracer,1.29
same,NanoBRET Fold Response,1μM tracer,1.43
O=C(CCOCCOCCOCCOCCNC(=O)CCc1ccc2n1[B-](F)(F)[N+]1=C(c3ccc[nH]3)C=CC1=C2)NCCCN1CCN(C2=Nc3cc(Cl)ccc3Nc3ccccc32)CC1 [Clozapine-a-2-NB590],NanoBRET Fold Response,"MCHR2, 0.1μM tracer",0.98
same,NanoBRET Fold Response,"MCHR2, 1μM tracer",1.37
CN1CCN(C2=Nc3cc(Cl)ccc3Nc3ccc(CNC(=O)CCOCCOCCOCCOCCNC(=O)CCc4ccc5n4[B-](F)(F)[N+]4=C(c6ccc[nH]6)C=CC4=C5)cc32)CC1 [Clozapine-b-2-NB590],NanoBRET Fold Response,"MCHR2, 0.1μM tracer",1.00
same,NanoBRET Fold Response,"MCHR2, 1μM tracer",0.97
CN1CCN(C2=Nc3cc(Cl)ccc3N(CC(=O)NCCOCCOCCOCCOCCNC(=O)CCc3ccc4n3[B-](F)(F)[N+]3=C(c5ccc[nH]5)C=CC3=C4)c3ccccc32)CC1 [Clozapine-c-2-NB590],NanoBRET Fold Response,"MCHR2, 0.1μM tracer",1.06
same,NanoBRET Fold Response,"MCHR2, 1μM tracer",1.01
O=C(CCOCCOCCOCCOCCNC(=O)CCc1ccc2n1[B-](F)(F)[N+]1=C(c3ccc[nH]3)C=CC1=C2)NCCCN1CCN(C2=Nc3ccccc3Oc3ccc(Cl)cc32)CC1 [Loxapine-a-2-NB590],NanoBRET Fold Response,"MCHR2, tracer 0.1μM",1.02
same,NanoBRET Fold Response,"MCHR2, tracer 1μM",1.12
COc1ccccc1N1CCN(CCCCN2C(=O)c3ccc(CNC(=O)CCOCCOCCOCCOCCNC(=O)CCc4ccc5n4[B-](F)(F)[N+]4=C(c6ccc[nH]6)C=CC4=C5)cc3C2=O)CC1 [NAN-190-2-NB590],NanoBRET Fold Response,"MCHR2, tracer 0.1μM",0.99
same,NanoBRET Fold Response,"MCHR2, tracer 1μM",0.94
COc1ccccc1N1CCN(CCCCN2C(=O)c3ccc(CNC(=O)CCOCCNC(=O)c4ccc(CNC(=O)CCc5ccc6n5[B-](F)(F)[N+]5=C(c7ccc[nH]7)C=CC5=C6)cc4)cc3C2=O)CC1 [NAN-190-3-NB590],NanoBRET Fold Response,"MCHR2, tracer 0.1μM",1.09
same,NanoBRET Fold Response,"MCHR2, tracer 1μM",0.72
O=C(CCc1ccc2n1[B-](F)(F)[N+]1=C(c3ccc[nH]3)C=CC1=C2)NCc1ccc(C(=O)NCCOCCC(=O)N[C@@H]2CC[C@@]3(O)[C@H]4Cc5ccc(O)c6c5[C@@]3(CCN4CC3CC3)[C@H]2O6)cc1 [Naltrexone-3-NB590],NanoBRET Fold Response,"MCHR2, tracer 0.1μM",1.10
same,NanoBRET Fold Response,"MCHR2, tracer 1μM",1.01
Cc1cc2c(s1)Nc1ccccc1N=C2N1CCN(CCCNC(=O)CCOCCOCCOCCOCCNC(=O)CCc2ccc3n2[B-](F)(F)[N+]2=C(c4ccc[nH]4)C=CC2=C3)CC1 [Olanzapine-a-2-NB590],NanoBRET Fold Response,"MCHR2, tracer 0.1μM",0.98
same,NanoBRET Fold Response,"MCHR2, tracer 1μM",1.01
O=C(CCc1ccc2n1[B-](F)(F)[N+]1=C(c3ccc[nH]3)C=CC1=C2)NCc1ccc(C(=O)NCCOCCOCCNCC(O)COc2cccc3ccccc23)cc1 (stereo not shown) [Propranolol-3-NB590],NanoBRET Fold Response,"MCHR2, 0.1μM",0.91
same,NanoBRET Fold Response,"MCHR2, 1μM",1.02
O=C(CCc1ccc2n1[B-](F)(F)[N+]1=C(c3ccc[nH]3)C=CC1=C2)NCCOCCOCCNC(=O)OCCOCCN1CCN(C2=Nc3ccccc3Sc3ccccc32)CC1 [Quetiapine-a-2-NB590],NanoBRET Fold Response,"MCHR2, tracer 0.1μM",1.03
same,NanoBRET Fold Response,"MCHR2, tracer 1μM",0.74
Cc1nc2n(c(=O)c1CCN1CCC(c3noc4cc(F)ccc34)CC1)CCCC2OC(=O)NCCOCCOCCOCCOCCNC(=O)CCc1ccc2n1[B-](F)(F)[N+]1=C(c3ccc[nH]3)C=CC1=C2 (stereo not shown) [Risperidone-2-NB590],NanoBRET Fold Response,"MCHR2, tracer 0.1μM",0.96
same,NanoBRET Fold Response,"MCHR2, tracer 1μM",0.97
CC(C)N(CC[C@H](c1ccccc1)c1cc(CCNC(=O)CCOCCOCCOCCOCCNC(=O)CCc2ccc3n2[B-](F)(F)[N+]2=C(c4ccc[nH]4)C=CC2=C3)ccc1O)C(C)C [Tolterodine-2-NB590],NanoBRET Fold Response,"MCHR2, tracer 0.1μM",1.59
same,NanoBRET Fold Response,"MCHR2, tracer 1μM",1.08
CC(C)N(CC[C@H](c1ccccc1)c1cc(CCNC(=O)c2ccc(CNC(=O)CCc3ccc4n3[B-](F)(F)[N+]3=C(c5ccc[nH]5)C=CC3=C4)cc2)ccc1O)C(C)C [Tolterodine-BZ-NB590],NanoBRET Fold Response,"MCHR2, tracer 0.1μM",0.93
same,NanoBRET Fold Response,"MCHR2, tracer 1μM",1.02
CCCn1c(=O)c2[nH]c(-c3ccc(OCC(=O)NCCNC(=O)CCOCCNC(=O)c4ccc(CNC(=O)CCc5ccc6n5[B-](F)(F)[N+]5=C(c7ccc[nH]7)C=CC5=C6)cc4)cc3)nc2n(CCC)c1=O [XAC-3-NB590],NanoBRET Fold Response,"MCHR2, tracer 0.1μM",0.96
same,NanoBRET Fold Response,"MCHR2, tracer 1μM",0.97
